Laboratory results from article PMC5698469, “Carrageenan catabolism is encoded by a complex regulon in marine heterotrophic bacteria” (Nature Communications, 2017).

Legend:
ZGAL_4655 = target: T1, ZGAL_4655 (Zobellia galactanivorans, UniProt G0L4M6); test: beta-galactosidase activity on artificial substrate; assay type: biochemical
T1 construct: gene bgaF
T1 sequence (G0L4M6 18-845): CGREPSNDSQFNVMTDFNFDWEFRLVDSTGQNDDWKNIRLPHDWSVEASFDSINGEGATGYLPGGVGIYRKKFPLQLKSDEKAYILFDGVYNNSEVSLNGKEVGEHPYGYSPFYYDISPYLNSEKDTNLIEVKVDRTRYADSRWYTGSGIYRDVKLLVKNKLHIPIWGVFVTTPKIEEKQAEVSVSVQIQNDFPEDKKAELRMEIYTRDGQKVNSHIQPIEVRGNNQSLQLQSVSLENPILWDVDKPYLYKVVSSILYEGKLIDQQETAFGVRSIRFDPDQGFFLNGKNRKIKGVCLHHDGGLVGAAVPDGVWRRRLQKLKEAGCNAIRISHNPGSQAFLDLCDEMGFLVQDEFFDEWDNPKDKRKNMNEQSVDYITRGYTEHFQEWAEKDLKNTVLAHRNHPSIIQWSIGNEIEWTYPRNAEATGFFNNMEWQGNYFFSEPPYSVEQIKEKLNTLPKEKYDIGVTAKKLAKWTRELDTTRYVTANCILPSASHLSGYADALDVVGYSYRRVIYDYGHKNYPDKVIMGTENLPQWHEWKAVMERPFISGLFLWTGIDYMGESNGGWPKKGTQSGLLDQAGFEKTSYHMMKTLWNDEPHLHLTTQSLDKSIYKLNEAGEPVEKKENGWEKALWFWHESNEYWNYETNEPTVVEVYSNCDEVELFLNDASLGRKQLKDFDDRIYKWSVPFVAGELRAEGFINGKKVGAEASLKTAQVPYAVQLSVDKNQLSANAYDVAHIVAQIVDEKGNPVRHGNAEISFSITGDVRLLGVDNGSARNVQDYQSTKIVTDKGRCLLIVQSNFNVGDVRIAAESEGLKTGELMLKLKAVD

ZGAL_3633 = target: T2, ZGAL_3633 (Zobellia galactanivorans, UniProt G0L1N0); test: as above; assay type: biochemical
T2 construct: gene bgaB
T2 sequence (G0L1N0 21-825): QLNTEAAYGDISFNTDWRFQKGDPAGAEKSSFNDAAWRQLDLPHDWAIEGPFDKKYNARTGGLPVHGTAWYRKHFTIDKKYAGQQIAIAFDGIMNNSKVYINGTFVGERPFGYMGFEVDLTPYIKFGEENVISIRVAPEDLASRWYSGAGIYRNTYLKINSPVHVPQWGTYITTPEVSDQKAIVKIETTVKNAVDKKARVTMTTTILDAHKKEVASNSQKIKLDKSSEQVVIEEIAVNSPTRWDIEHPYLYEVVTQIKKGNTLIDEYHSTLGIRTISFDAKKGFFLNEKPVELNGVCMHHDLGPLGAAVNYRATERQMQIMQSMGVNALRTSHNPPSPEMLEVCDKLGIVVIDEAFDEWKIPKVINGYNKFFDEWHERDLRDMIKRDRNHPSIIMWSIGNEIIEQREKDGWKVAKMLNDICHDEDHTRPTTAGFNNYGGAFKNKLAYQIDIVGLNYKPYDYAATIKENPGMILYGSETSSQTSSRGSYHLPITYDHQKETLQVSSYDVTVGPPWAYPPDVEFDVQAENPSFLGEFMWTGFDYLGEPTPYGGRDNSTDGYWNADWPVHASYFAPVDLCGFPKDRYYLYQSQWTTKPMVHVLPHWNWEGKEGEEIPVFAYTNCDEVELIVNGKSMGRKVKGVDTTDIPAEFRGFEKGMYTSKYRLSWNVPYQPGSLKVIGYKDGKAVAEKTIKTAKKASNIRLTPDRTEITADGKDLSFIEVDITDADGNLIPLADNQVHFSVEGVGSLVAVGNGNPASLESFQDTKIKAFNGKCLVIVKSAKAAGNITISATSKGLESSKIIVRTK

**Q.** With O=[N+]([O-])c1ccc(O[C@@H]2O[C@H](CO)[C@H](O)[C@H](O)[C@H]2O)cc1 [pNP-beta-D-galactopyranoside] as the molecule, how does the “beta-galactosidase activity on artificial substrate” value (ZGAL_4655) read?
**A.** The value was “recombinant enzymes displayed beta-galactosidase activity on an artificial substrate (pNP-beta-D-galactopyranoside”.

**Q.** And the “beta-galactosidase activity on artificial substrate” value (ZGAL_3633)?
**A.** Its value is “recombinant enzymes displayed beta-galactosidase activity on an artificial substrate (pNP-beta-D-galactopyranoside”.
